The values that follow are results of earlier work, collected in patent publication US9382205B2, “Processes for the manufacture of a pharmaceutically active agent” (H. Lundbeck A/S, priority 2009, dated 2016).

One series has as its target human 5-HT6 receptor. The settings on record: from Roth et al. 1994.
Another series deals with Alzheimer's patients. The note with it: first report.
The conditions of series [1]: Rogers et al. 1999.

Molecules are shown by their SMILES.

Consider `CN(C)CCC=C1c2ccccc2CCc2ccccc21` [amitriptyline], for which the Ki on human 5-HT6 receptor was 65 nM.

Regarding `O=S(=O)(c1ccccc1)c1cnc2c(N3CCNCC3)cccc2c1` [SB-742457], the clinical benefit result in the series with Alzheimer's patients is “of clinical benefit”.

Turning to `COc1ccc(NS(=O)(=O)c2sc3ccc(Cl)cc3c2C)cc1N1CCNCC1` [SB-271046], in series [1], the “performance in the Morris water maze” value is “improved performance”. Further, the “spatial alternation operant behavior test” value with aged rats is listed as “improvements”.
